Measurements: patent publication US20040259948A1, “Reciprocal regulation of inflammation and lipid metabolism by liver X receptors” (priority 2003, published 2004)

Tests used:
LXRβ/RXRα = biological target: T1, LXRβ/RXRα (Homo sapiens, UniProt P55055); test: Luciferase reporter transfection in RAW 264.7 cells, LXRβ/RXRα; format: cell-based; details: 2 μM
T1 construct: expressed in transfected cells; host or cells: RAW 264.7
T1 sequence (P55055 1-460): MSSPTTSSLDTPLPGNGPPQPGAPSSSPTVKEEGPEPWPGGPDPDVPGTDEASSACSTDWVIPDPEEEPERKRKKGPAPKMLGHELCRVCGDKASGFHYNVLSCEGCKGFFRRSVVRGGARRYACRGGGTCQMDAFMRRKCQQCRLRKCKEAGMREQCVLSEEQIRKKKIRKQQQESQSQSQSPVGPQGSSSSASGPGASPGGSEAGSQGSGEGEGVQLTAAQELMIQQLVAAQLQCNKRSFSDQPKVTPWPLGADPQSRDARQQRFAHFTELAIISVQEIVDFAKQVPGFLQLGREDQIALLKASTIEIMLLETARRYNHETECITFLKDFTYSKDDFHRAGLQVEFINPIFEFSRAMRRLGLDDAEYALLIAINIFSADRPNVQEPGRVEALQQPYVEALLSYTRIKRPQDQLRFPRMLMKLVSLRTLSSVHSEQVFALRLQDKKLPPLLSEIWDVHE
T1 sequence (P19793 1-462 partner): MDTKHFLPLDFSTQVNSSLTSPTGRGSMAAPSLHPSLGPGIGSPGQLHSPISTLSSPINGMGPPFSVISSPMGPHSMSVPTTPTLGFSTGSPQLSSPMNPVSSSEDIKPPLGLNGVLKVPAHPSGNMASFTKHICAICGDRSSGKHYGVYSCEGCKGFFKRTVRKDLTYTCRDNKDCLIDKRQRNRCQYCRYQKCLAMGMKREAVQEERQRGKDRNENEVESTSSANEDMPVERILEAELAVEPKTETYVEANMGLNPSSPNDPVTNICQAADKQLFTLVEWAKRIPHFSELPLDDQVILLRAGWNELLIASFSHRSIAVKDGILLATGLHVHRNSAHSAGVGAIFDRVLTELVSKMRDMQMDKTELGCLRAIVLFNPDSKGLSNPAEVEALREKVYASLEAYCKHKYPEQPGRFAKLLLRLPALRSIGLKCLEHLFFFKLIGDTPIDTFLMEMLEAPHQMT
Procedure: We next investigated the mechanism by which LXR inhibits iNOS and COX-2 expression. […] RAW 264.7 cells were transfected with expression vectors for either LXRα/RXRα or LXRβ/RXRα along with luciferase reporter constructs. The LXR agonist inhibited expression of both iNOS and COX-2 gene promoters in a receptor-dependent fashion (FIG. 4 A and B). […] E, A dominant-negative IKK expression vector (IKK DN) blocks LXR-dependent repression of the COX-2 promoter. Transfected cells were treated with DMSO (ctrl), GW3965 (GW), LPS, or GW3965 and LPS. […] RAW 264.7 cells were transiently transfected with expression vectors for LXRα/RXRα, LXRβ/RXRα or dominant-negative I kappa B kinase (IKK) along with iNOS (A), COX-2 (B, E, F), NF-κB (C), AP-1 (D) or COX-2/NF-κB mutant (F) luciferase reporters. […] As activation of iNOS and COX-2 gene promoters by LPS is known to depend on interactions between AP-1 and NF-κB transcription factors, the effect of LXR on minimal promoters containing binding sites for these factors was evaluated. […] Moreover, the inhibitory effect of LXR on the COX-2 promoter was lost when NF-κB activity was blocked by transfection of a dominant-negative IKK or when binding sites for NF-κB were mutated (FIGS. 4E and F). These observations indicate that inhibition of inflammatory gene expression by LXR ligands involves antagonism of NF-κB signaling.
Reagents and plasmids. […] Oxysterols, LDL and ox-LDL were from Sigma and Intracell, respectively. LPS from Salmonella typhimurium was from Sigma. Expression plasmids for LXRα, LXRβ and IKK-DN (Castrillo, A. et al. 2001 J Biol Chem 276:15854-15860; Laffitte, B. A. et al. 2001 Mol Cell Biol 21:7558-7568), and reporter plasmids for NOS-2, (NFκB)3-LUC, (AP-1)4-LUC and COX-2 have been described (Callejas, N. A. et al. 2000 Gastroenterology 119:493-501).
Cell culture and transfections. Thioglycolate-elicited peritoneal macrophages were cultured in RPMI containing 10% fetal bovine serum (FBS). […] NO production was determined spectrophotometrically (Castrillo, A. et al. 2000 Mol Cell Biol 20:1692-1698).

C57B1/6 mice = test: Murine model of irritant contact dermatitis (TPA-treated ear); format: in vivo; details: topical 20 μl of 10 mM at 45 min and 4 h post-TPA; 18 h; relative to vehicle-treated ear
Procedure: The effects of LXR ligands in both acute and chronic inflammatory contexts were evaluated. First, the effects of LXR agonists in a murine model of irritant contact dermatitis (Sheu, M. Y. et al. 2002 J Invest Dermatol 118:94-101) were studied. Ears of C57B1/6 mice (n=5 per group) were treated topically with 12-O-tetradecanoylphorbol-13-acetate (TPA) (left ear) or with vehicle (right ear). […] Thickness and weight of 6-mm punch biopsies were determined for each group after 18 h TPA treatment and are presented relative to vehicle-treated ear. […] Analysis of hematoxylin and eosin (H&E) stained sections of the TPA-treated ears confirmed a reduction in edema and inflammatory infiltrate by LXR agonist. Thus, two structurally unrelated LXR agonists have anti-inflammatory activity in a model of cutaneous inflammation.
Animals. Mice on a mixed background (C57B1/6 and 129v) and Apoe^−/− mice on a C57B1/6 background were maintained on standard chow. […] Irritant contact dermatitis was induced as described (Sheu, M. Y. et al. 2002 J Invest Dermatol 118:94-101). Briefly, 10 μl of 0.03% 12-O-tetradecanoylphorbol-13-acetate (TPA) in acetone was applied to the left ears of male mice. The right ears were treated with vehicle alone. […] After 18 h of TPA treatment, the thickness and weight of 6-mm punch biopsies were determined. Statistical analysis was performed using Student's t-test. Experiments were conducted in accordance of the Animal Research Committee of the University of California, Los Angeles.

- induction of the COX-2 promoter by LPS (luciferase reporter) (LXRβ/RXRα): inhibits induction
- induction of the iNOS promoter by LPS (luciferase reporter) (LXRβ/RXRα): inhibits induction
- luciferase reporter containing multiple NF-κB binding sites (LXRβ/RXRα; LPS): inhibits expression
SMILES: O=C(O)Cc1cccc(OCCCN(Cc2cccc(C(F)(F)F)c2Cl)CC(c2ccccc2)c2ccccc2)c1 [GW3965]
- ear thickness (C57B1/6 mice): reduced
- ear weight (6-mm punch biopsies) (C57B1/6 mice): reduced
